Assay results published in patent publication US6255497A, “Method for the inhibition of ALDH-I useful in the treatment of alcohol dependence or alcohol abuse” (priority 1998, dated 2001).

Legend:
ALDH-II [1] = biological target: T1, ALDH-II (Homo sapiens, UniProt P00352); assay: Inhibition kinetics of ALDH-II, initial velocity method, formaldehyde as substrate
T1 sequence (P00352 1-501): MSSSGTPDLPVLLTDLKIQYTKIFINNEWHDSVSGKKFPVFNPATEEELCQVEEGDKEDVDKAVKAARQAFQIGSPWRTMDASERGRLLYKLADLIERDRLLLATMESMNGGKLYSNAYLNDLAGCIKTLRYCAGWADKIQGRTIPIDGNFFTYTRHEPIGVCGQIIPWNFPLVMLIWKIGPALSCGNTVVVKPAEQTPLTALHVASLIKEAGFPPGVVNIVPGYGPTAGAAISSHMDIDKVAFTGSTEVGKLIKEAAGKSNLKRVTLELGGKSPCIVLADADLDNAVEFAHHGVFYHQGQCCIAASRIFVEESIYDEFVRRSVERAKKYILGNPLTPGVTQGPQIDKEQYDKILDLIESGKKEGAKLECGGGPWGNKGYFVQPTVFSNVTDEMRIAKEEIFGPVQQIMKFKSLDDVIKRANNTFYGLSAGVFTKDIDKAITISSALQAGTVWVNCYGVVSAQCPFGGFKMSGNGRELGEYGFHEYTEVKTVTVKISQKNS
Experimental: The inhibition kinetics were studied by the initial velocity method (Dixon and Webb, 1979, Enzymes, 3rd ed., Longman, Great Britain). […] The initial reaction rates were measured in a pH 9.5 assay medium 0.1 11 in glycine-NaOH, 0. […] The enzyme reaction rates were followed by monitoring the production of NADH at 340 nm (ε-6.22 mM^-1 cm^-1) with a Varian Cary 219 spectrophotometer thermostated at 25° C. The kinetic data were analyzed by standard graphical methods.

ALDH-I [2] = biological target: T2, ALDH-I (Homo sapiens, UniProt P05091); assay: Reversibility of ALDH-I inhibition (preincubation, then dilution); format: biochemical; parameters: A liver sample (50 g wet weight) with the usual Caucasian ALDH phenotype (both ALDH-I and ALDH-II present); from tissue; host or cells: human liver (autopsy), purified by CM-52, AMP-agarose and DEAE HPLC
T2 sequence (P05091 18-517): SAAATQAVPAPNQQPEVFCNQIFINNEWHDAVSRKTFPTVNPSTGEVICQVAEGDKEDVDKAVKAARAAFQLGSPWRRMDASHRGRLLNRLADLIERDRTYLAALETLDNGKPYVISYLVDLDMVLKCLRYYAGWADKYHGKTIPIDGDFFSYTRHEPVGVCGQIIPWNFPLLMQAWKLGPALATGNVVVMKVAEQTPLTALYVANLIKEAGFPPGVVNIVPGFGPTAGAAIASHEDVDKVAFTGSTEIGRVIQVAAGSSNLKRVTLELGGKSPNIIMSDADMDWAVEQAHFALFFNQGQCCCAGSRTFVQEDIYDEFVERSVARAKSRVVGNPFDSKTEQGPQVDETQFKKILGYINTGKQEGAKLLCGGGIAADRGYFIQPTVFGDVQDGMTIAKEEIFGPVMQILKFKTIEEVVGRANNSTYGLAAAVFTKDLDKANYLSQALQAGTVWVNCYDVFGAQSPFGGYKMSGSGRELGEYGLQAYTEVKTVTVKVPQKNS

rats = details: subcutaneous in propylene glycol; cited from earlier work
golden hamsters = assay: Dose effect on free choice ethanol intake in golden hamsters, i.p.; format: in vivo, golden hamster; details: i.p.
Source text: It is common practice in quantitative drug studies with rodents to use intraperitoneal (i.p.) administration to deliver drug doses accurately (Goodman and Gilman, 1975, The Pharmacological Basis of Therapeutics, 5th ed., Macmillan, N.Y., p. 8). In particular, this method avoids variability introduced by technical difficulties of oral administration via feeding (full versus empty stomach, etc.), variations in drug transport in the gastrointestinal tract (variations in intestinal fauna and flora, individual variations in absorption rate expected of outbred animals, etc.) and other factors. […] As a control 1 ml of sterile saline was injected i.p. daily during the baseline period (typically 7-9 days) that establishes drinking preference without the drug. Saline injection i.p. had no effect on the drinking behavior of golden hamsters. Ethanol was provided as a 20% solution. Hamsters could be used more than once (but were not used more than three times) in a cycle of baseline saline injections followed by drug injections, each cycle with the drug at a different dose.
The response to daidzin treatment was computed as:
% Response=(Vo -Vd)×100/Vo

ALDH-II [3] = biological target: T1, ALDH-II; assay: ALDH-II inhibition by structurally related compounds, acetaldehyde as substrate; format: biochemical; parameters: A liver sample (50 g wet weight) with the usual Caucasian ALDH phenotype (both ALDH-I and ALDH-II present); from tissue; host or cells: human liver (autopsy), purified by CM-52, AMP-agarose and DEAE HPLC
Experimental: *ALDH activities were assayed at 25° C. in 0.1 M sodium
pyrophosphate buffer pH 9.5 containins 0.15 M KCl, 1 mM NAD^+, various
concentrations of inhibitors and 5 and 200 μM acetaldehyde for ALDH-I
and ALDH-II, respectively.
For the study of the inhibition of ALDH-I by structurally related compounds to generate the data shown in Tables IV and V, each individual compound was dissolved at different concentrations in methanol and was added to the assay medium as 10 μL aliquots. For controls, 10 […] of methanol was added to the assay medium. In a standard ALDH-I assay, the assay medium contains 0.1 M sodium pyrophosphate pH 9.5, 0.15 M KCl, 1 mM NAD^+, 1% methanol, 5 μM acetaldehyde, 5-10 nM ALDH-I and various concentrations of inhibitor. The enzyme reaction rates were measured by monitoring the production of NADH at 340 nm (ε=6.22 mM^-1 cm^-1) with a Varian Cary 219 spectrophotometer thermostated at 25° C. (Fong et al., 1989, supra). The inhibition of ALDH-I by the inhibitors was calculated as: [formula]
where Vo is the enzyme reaction rate measured in the absence of inhibitor, and where Vi is the enzyme reaction rate measured in the presence of inhibitor. […] IC50 values are related to the underlying Ki values.

[4] = high doses; cited from earlier work
[5] = Solubility in water / aqueous media
ALDH-I [6] = biological target: T2, ALDH-I; assay: Inhibition kinetics of ALDH-I, initial velocity method, formaldehyde as substrate; details: from Ki values of Table II
Experimental: The kinetic data were analyzed by standard graphical methods.

SMILES: O=c1c(-c2ccc(O)cc2)coc2cc(O[C@@H]3O[C@H](CO)[C@@H](O)[C@H](O)[C@H]3O)ccc12 [Daidzin, 7-glucoside of daidzein]
- Ki (ALDH-II [1]): 20 µM
- reversibility of ALDH-I inhibition (ALDH-I [2]): reversible
- inhibition at 0.001 µM (ALDH-I [2]; read-out: final inhibition after 100-fold dilution): 2%
- inhibition at 0.1 µM (ALDH-I [2]; read-out: inhibition after preincubation with daidzin): 70%
- antifebrile (hypothermic) effect (rats): no antifebrile (hypothermic) effect
- suppression of alcohol intake at 5 mg/day (golden hamsters; 20% ethanol, 5 mg/day): 20%
- suppression of alcohol intake at 10 mg/day (golden hamsters; 20% ethanol, 10 mg/day): 50%
- suppression of alcohol intake at 30 mg/day (golden hamsters; 20% ethanol, 30 mg/day): 80%
- EC50 or half-maximal response, suppression of alcohol intake (golden hamsters; golden hamsters): 10 mg/day
- IC50 (ALDH-II [3]): 20 µM
- estrogenic activity [4]: estrogenic activity at high doses
- solubility in polyethylene glycol 400 ([5]; PEG 400): highly soluble
- solubility in glycerol ([5]; glycerol): highly soluble
- more effective inhibition of human ALDH-I than of human ALDH-II (ALDH-I [6]): 500 fold
